In assay [1] the target is Mitogen-activated protein kinase kinase kinase 1 (Homo sapiens, UniProt Q13233).
Assay [2] addresses T1, Non-receptor tyrosine-protein kinase TNK1 (Homo sapiens, UniProt Q13470).
T1 sequence (Q13470 whole entry): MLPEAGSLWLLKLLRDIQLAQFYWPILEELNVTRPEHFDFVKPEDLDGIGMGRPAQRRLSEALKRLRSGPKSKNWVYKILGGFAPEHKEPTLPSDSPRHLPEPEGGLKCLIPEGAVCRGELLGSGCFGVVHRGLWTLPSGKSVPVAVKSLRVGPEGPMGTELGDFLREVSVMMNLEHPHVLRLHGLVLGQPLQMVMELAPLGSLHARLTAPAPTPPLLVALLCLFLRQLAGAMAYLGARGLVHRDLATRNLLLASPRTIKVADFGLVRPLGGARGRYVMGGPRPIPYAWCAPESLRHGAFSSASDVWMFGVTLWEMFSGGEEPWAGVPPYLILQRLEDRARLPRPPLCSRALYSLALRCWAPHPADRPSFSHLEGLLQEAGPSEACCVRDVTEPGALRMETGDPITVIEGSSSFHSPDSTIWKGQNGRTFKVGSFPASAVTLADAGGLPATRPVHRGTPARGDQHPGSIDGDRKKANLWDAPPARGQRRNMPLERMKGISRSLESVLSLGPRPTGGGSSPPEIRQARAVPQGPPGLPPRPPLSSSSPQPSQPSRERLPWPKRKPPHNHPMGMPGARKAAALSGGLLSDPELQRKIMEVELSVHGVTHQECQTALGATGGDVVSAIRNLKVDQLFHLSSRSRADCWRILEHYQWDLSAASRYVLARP

Assay [3] has as its target Serine/threonine-protein kinase SIK2 (Homo sapiens, UniProt Q9H0K1).
Assay [4] has as its target Rho-associated protein kinase 2 (Homo sapiens, UniProt O75116).
The target in assay [5] is DNA topoisomerase 2-alpha (Homo sapiens, UniProt P11388).
For assay [6], the target named is T2, Serine/threonine-protein kinase TAO3 (Homo sapiens, UniProt Q9H2K8).
T2 sequence (Q9H2K8 whole entry): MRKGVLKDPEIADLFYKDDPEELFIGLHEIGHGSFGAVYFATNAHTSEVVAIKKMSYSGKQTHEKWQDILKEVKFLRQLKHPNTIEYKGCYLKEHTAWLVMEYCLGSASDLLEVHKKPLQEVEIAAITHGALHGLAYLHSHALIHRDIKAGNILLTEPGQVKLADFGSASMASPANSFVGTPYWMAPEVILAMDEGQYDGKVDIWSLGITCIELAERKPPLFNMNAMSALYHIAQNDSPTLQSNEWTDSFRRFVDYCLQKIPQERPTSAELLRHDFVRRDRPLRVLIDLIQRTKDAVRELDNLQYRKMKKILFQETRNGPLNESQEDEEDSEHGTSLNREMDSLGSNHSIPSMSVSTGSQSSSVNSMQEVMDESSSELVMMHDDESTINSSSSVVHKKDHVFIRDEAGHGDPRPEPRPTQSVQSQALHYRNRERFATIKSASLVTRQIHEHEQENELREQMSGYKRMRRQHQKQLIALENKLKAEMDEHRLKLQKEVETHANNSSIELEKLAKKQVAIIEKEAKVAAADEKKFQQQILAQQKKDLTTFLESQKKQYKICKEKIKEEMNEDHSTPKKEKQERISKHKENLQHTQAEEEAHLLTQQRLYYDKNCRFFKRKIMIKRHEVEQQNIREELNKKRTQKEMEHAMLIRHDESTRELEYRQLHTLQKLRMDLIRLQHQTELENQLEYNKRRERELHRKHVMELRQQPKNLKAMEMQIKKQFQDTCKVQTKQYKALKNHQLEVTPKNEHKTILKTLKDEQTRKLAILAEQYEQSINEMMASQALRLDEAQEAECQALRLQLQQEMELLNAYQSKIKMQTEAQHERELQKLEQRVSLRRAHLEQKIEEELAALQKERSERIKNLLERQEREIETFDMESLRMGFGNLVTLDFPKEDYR

The target in assay [7] is TRAF2 and NCK-interacting protein kinase (Homo sapiens, UniProt Q9UKE5).
Assay [8] has as its target Tyrosine-protein kinase BTK (Homo sapiens, UniProt Q06187).
The target of assay [9] is Mitogen-activated protein kinase kinase kinase 4 (Homo sapiens, UniProt Q9Y6R4).
Chain of Mitogen-activated protein kinase kinase kinase 4 (Q9Y6R4 whole entry): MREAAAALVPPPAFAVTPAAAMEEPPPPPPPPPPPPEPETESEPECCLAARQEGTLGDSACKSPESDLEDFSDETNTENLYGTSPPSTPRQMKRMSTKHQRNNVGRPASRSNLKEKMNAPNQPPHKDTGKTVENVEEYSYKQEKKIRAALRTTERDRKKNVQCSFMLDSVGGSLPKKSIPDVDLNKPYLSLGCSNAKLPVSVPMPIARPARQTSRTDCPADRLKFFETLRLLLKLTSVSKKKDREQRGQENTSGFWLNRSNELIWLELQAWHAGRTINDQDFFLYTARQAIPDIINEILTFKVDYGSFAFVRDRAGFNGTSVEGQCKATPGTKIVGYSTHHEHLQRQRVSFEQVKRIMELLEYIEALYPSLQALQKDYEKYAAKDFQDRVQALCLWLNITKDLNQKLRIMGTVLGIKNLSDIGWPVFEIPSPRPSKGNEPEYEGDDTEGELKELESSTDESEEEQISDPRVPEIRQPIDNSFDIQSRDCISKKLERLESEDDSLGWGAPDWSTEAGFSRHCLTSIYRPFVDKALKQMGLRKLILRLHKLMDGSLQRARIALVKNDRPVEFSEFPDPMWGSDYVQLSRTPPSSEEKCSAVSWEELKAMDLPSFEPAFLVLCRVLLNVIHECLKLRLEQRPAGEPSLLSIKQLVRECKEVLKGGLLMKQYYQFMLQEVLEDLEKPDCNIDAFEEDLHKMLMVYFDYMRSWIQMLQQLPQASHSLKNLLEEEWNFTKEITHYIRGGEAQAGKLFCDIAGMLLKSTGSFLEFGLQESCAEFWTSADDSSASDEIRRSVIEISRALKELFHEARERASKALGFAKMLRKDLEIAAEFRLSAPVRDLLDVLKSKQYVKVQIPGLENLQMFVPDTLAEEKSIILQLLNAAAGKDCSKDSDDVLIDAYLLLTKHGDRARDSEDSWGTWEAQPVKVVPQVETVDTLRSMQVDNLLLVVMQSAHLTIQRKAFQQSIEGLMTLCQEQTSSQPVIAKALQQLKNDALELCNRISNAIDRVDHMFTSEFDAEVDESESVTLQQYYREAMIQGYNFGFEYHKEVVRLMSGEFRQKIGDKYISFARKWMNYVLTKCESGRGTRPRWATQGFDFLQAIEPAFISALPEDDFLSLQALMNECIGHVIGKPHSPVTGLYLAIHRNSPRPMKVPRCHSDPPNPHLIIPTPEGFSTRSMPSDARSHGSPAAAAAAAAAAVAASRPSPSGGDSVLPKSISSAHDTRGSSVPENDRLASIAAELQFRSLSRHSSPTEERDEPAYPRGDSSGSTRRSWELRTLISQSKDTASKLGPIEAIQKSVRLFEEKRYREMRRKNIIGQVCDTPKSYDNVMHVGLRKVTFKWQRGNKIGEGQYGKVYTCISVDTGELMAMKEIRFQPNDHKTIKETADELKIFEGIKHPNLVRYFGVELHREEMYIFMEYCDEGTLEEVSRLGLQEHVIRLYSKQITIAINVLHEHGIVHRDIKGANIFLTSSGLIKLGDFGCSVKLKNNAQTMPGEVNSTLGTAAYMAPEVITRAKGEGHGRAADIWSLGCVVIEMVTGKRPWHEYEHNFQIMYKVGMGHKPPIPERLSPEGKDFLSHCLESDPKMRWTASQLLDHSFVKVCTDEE
A further assay has as its target Obg-like ATPase 1 (Homo sapiens, UniProt Q9NTK5).
Assay [10] deals with T3, Receptor-type tyrosine-protein kinase FLT3 (Homo sapiens, UniProt P36888).
T3 sequence (P36888 whole entry): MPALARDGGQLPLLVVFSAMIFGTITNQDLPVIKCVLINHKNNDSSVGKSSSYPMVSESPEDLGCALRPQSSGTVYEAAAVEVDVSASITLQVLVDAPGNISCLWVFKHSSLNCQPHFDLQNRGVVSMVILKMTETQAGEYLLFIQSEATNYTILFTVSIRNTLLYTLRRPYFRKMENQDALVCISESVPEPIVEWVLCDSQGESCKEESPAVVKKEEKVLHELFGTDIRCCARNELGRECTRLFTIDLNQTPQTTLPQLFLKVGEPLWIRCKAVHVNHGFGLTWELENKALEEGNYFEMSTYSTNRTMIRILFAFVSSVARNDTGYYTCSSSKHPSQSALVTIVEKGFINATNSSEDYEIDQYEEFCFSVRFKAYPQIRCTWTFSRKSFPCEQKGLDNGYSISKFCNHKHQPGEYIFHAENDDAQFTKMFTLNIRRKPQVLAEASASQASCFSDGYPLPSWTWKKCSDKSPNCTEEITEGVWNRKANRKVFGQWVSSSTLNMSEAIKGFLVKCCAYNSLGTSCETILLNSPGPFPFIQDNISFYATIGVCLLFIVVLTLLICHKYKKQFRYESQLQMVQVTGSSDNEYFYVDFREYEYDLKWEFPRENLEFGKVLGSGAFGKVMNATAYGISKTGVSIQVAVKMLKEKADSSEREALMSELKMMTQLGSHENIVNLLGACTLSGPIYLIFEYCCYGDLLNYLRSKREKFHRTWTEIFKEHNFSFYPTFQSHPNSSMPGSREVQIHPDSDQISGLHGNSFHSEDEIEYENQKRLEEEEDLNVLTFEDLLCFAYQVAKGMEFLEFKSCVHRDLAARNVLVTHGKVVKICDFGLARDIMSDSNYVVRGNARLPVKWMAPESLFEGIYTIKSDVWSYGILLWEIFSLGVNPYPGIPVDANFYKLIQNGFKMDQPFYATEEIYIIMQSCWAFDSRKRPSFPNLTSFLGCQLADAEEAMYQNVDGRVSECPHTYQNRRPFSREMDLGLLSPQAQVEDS

Molecules are shown by their SMILES. Activity calls are given as the source filed them. For most assays here, no stated cut-off is given here; in the data, actives have a measured Kd and inactives only a lower limit. Where only a bound is given, the exact number is not on record here.

The source of these data is ChEMBL document CHEMBL3991601, “The target landscape of clinical kinase drugs” (Science, 2017).

As usually defined, the Kd is the equilibrium constant for the complex coming apart.

Chain of Serine/threonine-protein kinase SIK2 (Q9H0K1 whole entry): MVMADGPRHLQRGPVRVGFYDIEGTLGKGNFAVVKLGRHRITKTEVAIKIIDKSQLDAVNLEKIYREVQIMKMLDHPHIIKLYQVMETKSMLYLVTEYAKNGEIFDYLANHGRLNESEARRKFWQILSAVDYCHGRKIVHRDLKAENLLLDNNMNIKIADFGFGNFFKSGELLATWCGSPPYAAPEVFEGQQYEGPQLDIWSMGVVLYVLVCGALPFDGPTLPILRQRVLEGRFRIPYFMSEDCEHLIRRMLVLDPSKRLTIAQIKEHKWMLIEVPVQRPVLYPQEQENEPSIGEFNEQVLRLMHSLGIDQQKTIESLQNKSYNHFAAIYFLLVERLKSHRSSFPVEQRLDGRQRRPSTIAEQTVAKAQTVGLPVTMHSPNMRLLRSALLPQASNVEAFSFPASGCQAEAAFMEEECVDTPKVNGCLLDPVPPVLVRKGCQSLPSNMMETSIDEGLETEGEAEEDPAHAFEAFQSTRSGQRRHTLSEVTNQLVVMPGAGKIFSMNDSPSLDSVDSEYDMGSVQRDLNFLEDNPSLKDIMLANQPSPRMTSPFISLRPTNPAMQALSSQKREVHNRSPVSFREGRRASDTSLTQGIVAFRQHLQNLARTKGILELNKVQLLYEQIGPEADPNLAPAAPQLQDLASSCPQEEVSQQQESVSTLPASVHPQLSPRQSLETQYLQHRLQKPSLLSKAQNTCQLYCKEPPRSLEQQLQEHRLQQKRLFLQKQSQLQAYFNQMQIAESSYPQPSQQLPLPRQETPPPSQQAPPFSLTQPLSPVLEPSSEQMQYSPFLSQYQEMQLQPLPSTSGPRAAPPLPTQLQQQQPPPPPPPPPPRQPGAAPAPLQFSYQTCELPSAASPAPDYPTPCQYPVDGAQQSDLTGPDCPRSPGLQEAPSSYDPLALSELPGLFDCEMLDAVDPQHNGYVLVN
Chain of Rho-associated protein kinase 2 (O75116 whole entry): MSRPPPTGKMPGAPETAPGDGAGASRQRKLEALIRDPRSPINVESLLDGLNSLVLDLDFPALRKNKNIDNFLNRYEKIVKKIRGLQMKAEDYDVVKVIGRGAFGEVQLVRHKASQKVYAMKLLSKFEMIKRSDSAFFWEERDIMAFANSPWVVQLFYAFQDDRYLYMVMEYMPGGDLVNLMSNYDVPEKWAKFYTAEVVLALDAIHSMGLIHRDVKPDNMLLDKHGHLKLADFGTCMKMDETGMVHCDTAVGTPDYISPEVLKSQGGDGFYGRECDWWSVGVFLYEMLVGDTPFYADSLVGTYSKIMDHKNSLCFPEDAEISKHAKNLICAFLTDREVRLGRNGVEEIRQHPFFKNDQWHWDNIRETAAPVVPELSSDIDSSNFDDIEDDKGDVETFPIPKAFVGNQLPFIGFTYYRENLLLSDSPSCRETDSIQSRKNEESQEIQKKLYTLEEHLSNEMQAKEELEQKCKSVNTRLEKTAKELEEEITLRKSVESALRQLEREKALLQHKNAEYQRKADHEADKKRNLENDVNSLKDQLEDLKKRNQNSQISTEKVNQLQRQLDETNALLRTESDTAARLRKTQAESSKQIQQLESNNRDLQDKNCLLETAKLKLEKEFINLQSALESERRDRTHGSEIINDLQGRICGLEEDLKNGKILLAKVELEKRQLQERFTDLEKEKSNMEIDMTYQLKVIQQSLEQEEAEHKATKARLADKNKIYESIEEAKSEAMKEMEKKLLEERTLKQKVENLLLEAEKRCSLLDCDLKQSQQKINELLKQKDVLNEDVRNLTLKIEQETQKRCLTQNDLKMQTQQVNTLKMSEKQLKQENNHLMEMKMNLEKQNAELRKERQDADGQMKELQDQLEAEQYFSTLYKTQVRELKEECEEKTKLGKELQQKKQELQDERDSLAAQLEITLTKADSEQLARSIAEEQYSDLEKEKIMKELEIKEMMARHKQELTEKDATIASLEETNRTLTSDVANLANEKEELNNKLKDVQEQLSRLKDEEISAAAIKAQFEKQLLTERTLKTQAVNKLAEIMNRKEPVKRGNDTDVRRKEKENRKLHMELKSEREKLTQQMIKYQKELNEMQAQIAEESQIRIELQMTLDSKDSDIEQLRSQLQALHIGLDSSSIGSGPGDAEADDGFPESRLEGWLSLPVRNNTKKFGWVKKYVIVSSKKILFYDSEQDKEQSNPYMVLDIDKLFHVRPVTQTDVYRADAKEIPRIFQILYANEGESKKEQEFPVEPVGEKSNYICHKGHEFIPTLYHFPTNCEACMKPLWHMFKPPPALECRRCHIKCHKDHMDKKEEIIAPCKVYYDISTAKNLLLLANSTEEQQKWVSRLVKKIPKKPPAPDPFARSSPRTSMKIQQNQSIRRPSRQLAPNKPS
Chain of Tyrosine-protein kinase BTK (Q06187 whole entry): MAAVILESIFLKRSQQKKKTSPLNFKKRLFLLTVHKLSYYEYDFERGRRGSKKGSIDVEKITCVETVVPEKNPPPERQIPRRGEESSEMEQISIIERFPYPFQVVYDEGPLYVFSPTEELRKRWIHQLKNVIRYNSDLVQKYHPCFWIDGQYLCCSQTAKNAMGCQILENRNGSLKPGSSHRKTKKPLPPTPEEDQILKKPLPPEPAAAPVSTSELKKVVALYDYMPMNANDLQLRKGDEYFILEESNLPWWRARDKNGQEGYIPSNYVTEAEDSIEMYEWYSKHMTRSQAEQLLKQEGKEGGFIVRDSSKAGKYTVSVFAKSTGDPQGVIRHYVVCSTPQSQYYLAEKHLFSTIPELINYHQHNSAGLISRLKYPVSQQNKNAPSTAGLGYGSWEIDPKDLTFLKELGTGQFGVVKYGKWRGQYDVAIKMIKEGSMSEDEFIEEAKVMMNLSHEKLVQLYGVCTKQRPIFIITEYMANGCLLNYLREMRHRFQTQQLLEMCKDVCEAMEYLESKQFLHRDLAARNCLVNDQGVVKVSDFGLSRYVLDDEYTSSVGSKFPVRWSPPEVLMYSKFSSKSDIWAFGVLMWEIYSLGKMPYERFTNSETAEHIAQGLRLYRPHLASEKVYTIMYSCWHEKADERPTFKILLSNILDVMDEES
Chain of Obg-like ATPase 1 (Q9NTK5 whole entry, looked up): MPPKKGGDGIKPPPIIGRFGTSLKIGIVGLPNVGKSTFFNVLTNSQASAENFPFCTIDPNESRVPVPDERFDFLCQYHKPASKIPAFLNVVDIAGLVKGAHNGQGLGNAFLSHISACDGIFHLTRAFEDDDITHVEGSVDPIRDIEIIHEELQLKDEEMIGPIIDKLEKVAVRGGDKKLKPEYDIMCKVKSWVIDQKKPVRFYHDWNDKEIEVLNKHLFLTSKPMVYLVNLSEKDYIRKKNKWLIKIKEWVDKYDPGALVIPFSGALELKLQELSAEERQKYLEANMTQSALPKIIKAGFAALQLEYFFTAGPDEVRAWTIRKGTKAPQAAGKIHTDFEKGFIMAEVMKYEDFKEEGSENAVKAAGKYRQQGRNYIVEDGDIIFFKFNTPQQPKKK

Take `CN(C[C@@H]1COCCO1)S(=O)(=O)Nc1ccc2ccc3ncc(-c4cnn(C)c4)cc3c(=O)c2c1` [MK-2461]: the Kd in assay [1], in [2], in [3], in assay [4], in assay [5] and in assay [6] was > 30 µM (inactive) each time. Also, the Kd (in [7]; in [8]; in assay [9]; at Obg-like ATPase 1; in [10]) was > 30 µM (inactive) each time.
For the molecule `COc1ncc(-c2ccc3nccc(-c4ccnnc4)c3c2)cc1NS(=O)(=O)c1ccc(F)cc1F` [OMIPALISIB], the Kd in assay [1], in assay [2], in [3], in [4], in [5] and in assay [6] was > 30 µM (inactive) in each case. The Kd (in assay [7]; in [8]; in assay [9]; at Obg-like ATPase 1; in [10]) was > 30 µM (inactive) in each case.
Take `Cc1nc(Nc2n[nH]c3c2CN(C(=O)N[C@H](CN(C)C)c2ccccc2)C3(C)C)c2sccc2n1` [PF-03758309]: the Kd in assay [1] was > 30 µM (inactive); in [2], > 30 µM (inactive); in assay [3], 1.27 µM (active); in assay [4] it was > 30 µM (inactive); in [5], > 30 µM (inactive); in assay [6], > 30 µM (inactive). Besides, the Kd in assay [7] is > 30 µM (inactive); in assay [8], 1.23 µM; in assay [9], > 30 µM (inactive); on Obg-like ATPase 1, > 30 µM (inactive); in [10], 1.44 µM (active).
Regarding `Cc1cnc(NC(=O)Nc2cc(Br)c(C)cc2OC[C@@H]2CNCCO2)cn1` [RABUSERTIB], the Kd in assay [1], in assay [2], in assay [3], in assay [4], in assay [5] and in assay [6] was > 30 µM (inactive) each time. Besides, the Kd (in assay [7]; in assay [8]; in assay [9]; on Obg-like ATPase 1; in assay [10]) was > 30 µM (inactive) throughout.
Regarding `N#CC1(c2ccc(NC(=O)c3cccnc3NCc3ccncc3)cc2)CCCC1` [RIVOCERANIB], the Kd in assay [1], in [2], in assay [3], in assay [4], in assay [5] and in [6] was > 30 µM (inactive) throughout. For the same molecule, the Kd (in assay [7]; in [8]; in assay [9]; on Obg-like ATPase 1; in assay [10]) was > 30 µM (inactive) throughout.
For the molecule `O=c1[nH]ccc2cc(OC3CCNCC3)ccc12` [SAR-407899 FREE BASE], the Kd in assay [1] is > 30 µM (inactive); in assay [2] it was > 30 µM (inactive); in [3], > 30 µM (inactive); in assay [4], 0.016 µM (active); in assay [5], > 30 µM (inactive); in [6], > 30 µM (inactive). The Kd (in assay [7]; in [8]; in assay [9]; on Obg-like ATPase 1; in [10]) was > 30 µM (inactive) each time.
As to `CO[C@H]1C[C@@H]2CC[C@@H](C)[C@@](O)(O2)C(=O)C(=O)N2CCCC[C@H]2C(=O)O[C@H]([C@H](C)C[C@@H]2CC[C@@H](O)[C@H](OC)C2)CC(=O)[C@H](C)/C=C(\C)[C@@H](O)[C@@H](OC)C(=O)[C@H](C)C[C@H](C)/C=C/C=C/C=C/1C` [SIROLIMUS], the Kd in assay [1], in assay [2], in assay [3], in [4], in [5] and in [6] was > 30 µM (inactive) each time. For the same molecule, the Kd (in assay [7]; in assay [8]; in assay [9]; at Obg-like ATPase 1; in assay [10]) was > 30 µM (inactive) throughout.
As to `CO[C@H]1C[C@@H]2CC[C@@H](C)[C@@](O)(O2)C(=O)C(=O)N2CCCC[C@H]2C(=O)O[C@H]([C@H](C)C[C@@H]2CC[C@@H](OC(=O)C(C)(CO)CO)[C@H](OC)C2)CC(=O)[C@H](C)/C=C(\C)[C@@H](O)[C@@H](OC)C(=O)[C@H](C)C[C@H](C)/C=C/C=C/C=C/1C` [TEMSIROLIMUS], the Kd in assay [1], in assay [2], in [3], in [4], in assay [5] and in assay [6] was > 30 µM (inactive) in each case. The Kd (in assay [7]; in assay [8]; in [9]; on Obg-like ATPase 1; in [10]) was > 30 µM (inactive) each time.
As to `COc1cc2c(Nc3ccc(Cl)c(Cl)c3F)ncnc2cc1OC[C@@H]1C[C@@H]2CN(C)C[C@@H]2C1` [TESEVATINIB], the dissociation constant (Kd) in assay [1] is 1.74 µM (active); in assay [2] it was > 30 µM (inactive); in assay [3], > 30 µM (inactive); in [4], > 30 µM (inactive); in assay [5] it was > 30 µM (inactive); in assay [6], > 30 µM (inactive). For the same molecule, the Kd in assay [7] is > 30 µM (inactive); in assay [8], 1.62 µM (active); in [9], > 30 µM (inactive); at Obg-like ATPase 1 it was > 30 µM (inactive); in assay [10], > 30 µM (inactive).
